The values that follow are results of earlier work, collected in patent US8349888B2, “Phytoestrogenic isoflavone compositions, their preparation and use thereof for protection against and treatment of radiation injury” (priority 2000, dated 2013).

The conditions of data set [1]: radioprotective doses.

As for `C[C@]12CC[C@@H]3c4ccc(O)cc4CC[C@H]3[C@@H]1CC[C@@H]2O` [17-beta-estradiol], the behavioral toxicity entry in data set [1] is on record as “behaviorally toxic”.

Take `O=c1cc(-c2ccc(O)c(O)c2)oc2c([C@@H]3O[C@H](CO)[C@@H](O)[C@H](O)[C@H]3O)c(O)cc(O)c12` [orientin]: the “efficacy if given after radiation” value with mice was “not effective at all”.

For the compound `O=c1cc(-c2ccc(O)cc2)oc2c([C@@H]3O[C@H](CO)[C@@H](O)[C@H](O)[C@H]3O)c(O)c([C@@H]3O[C@H](CO)[C@@H](O)[C@H](O)[C@H]3O)c(O)c12` [vicenin], the “efficacy if given after radiation” value in the data set on mice was “not effective at all”.
